From the NIST ThermoML archive (doi:10.1016/j.fluid.2016.06.028)
± gives the expanded uncertainty stated by the source.

Details: for surface tension liquid-gas: Ring tensiometer; for viscosity / electrical conductivity / mass density: 101.33 kPa, Liquid; for viscosity: Concentric cylinders viscometry; for electrical conductivity: Direct current cell with electrodes; for mass density: Vibrating tube method

SMILES: COCC[N+]1(C)CCOCC1.O=S(=O)([N-]S(=O)(=O)C(F)(F)F)C(F)(F)F
- surface tension liquid-gas (298.15 K): 50.14 ± 0.88 mN/m
- viscosity (298.15 K): 257.6 ± 26 mPa·s
- electrical conductivity (298.15 K): 0.065 ± 0.04 S/m
- mass density (298.15 K): 1500.2 ± 2.1 kg/m3
- surface tension liquid-gas (303.15 K): 49.3 ± 0.87 mN/m
- viscosity (303.15 K): 210.9 ± 22 mPa·s
- electrical conductivity (303.15 K): 0.079 ± 0.04 S/m
- mass density (303.15 K): 1495.7 ± 2 kg/m3
- surface tension liquid-gas (313.15 K): 48.41 ± 0.86 mN/m
- viscosity (313.15 K): 127.2 ± 13 mPa·s
- electrical conductivity (313.15 K): 0.108 ± 0.04 S/m
- mass density (313.15 K): 1486.4 ± 2 kg/m3
- surface tension liquid-gas (323.15 K): 47.64 ± 0.85 mN/m
- viscosity (323.15 K): 77.98 ± 7.9 mPa·s
- electrical conductivity (323.15 K): 0.136 ± 0.04 S/m
- mass density (323.15 K): 1477.2 ± 2 kg/m3
- surface tension liquid-gas (333.15 K): 46.3 ± 0.83 mN/m
- viscosity (333.15 K): 51.89 ± 5.2 mPa·s
- electrical conductivity (333.15 K): 0.17 ± 0.04 S/m
- mass density (333.15 K): 1468 ± 2 kg/m3
- surface tension liquid-gas (343.15 K): 45.36 ± 0.82 mN/m
- viscosity (343.15 K): 37.49 ± 3.8 mPa·s
- electrical conductivity (343.15 K): 0.257 ± 0.04 S/m
- mass density (343.15 K): 1458.9 ± 1.9 kg/m3
- surface tension liquid-gas (353.15 K): 44.74 ± 0.81 mN/m
- viscosity (353.15 K): 27.59 ± 2.8 mPa·s
- electrical conductivity (353.15 K): 0.334 ± 0.04 S/m
- mass density (353.15 K): 1449.8 ± 1.9 kg/m3

SMILES: CCC[N+](C)(C)CC.O=S(=O)([N-]S(=O)(=O)C(F)(F)F)C(F)(F)F
- surface tension liquid-gas (298.15 K): 46.56 ± 0.83 mN/m
- viscosity (298.15 K): 58.79 ± 5.9 mPa·s
- electrical conductivity (298.15 K): 0.248 ± 0.04 S/m
- mass density (298.15 K): 1403 ± 1.8 kg/m3
- surface tension liquid-gas (303.15 K): 45.84 ± 0.83 mN/m
- viscosity (303.15 K): 53.39 ± 5.4 mPa·s
- electrical conductivity (303.15 K): 0.281 ± 0.04 S/m
- mass density (303.15 K): 1398.8 ± 1.8 kg/m3
- surface tension liquid-gas (313.15 K): 44.92 ± 0.81 mN/m
- viscosity (313.15 K): 38.39 ± 3.9 mPa·s
- electrical conductivity (313.15 K): 0.325 ± 0.04 S/m
- mass density (313.15 K): 1389.8 ± 1.8 kg/m3
- surface tension liquid-gas (323.15 K): 43.95 ± 0.8 mN/m
- viscosity (323.15 K): 28.49 ± 2.9 mPa·s
- electrical conductivity (323.15 K): 0.358 ± 0.04 S/m
- mass density (323.15 K): 1381 ± 1.7 kg/m3
- surface tension liquid-gas (333.15 K): 43.34 ± 0.79 mN/m
- viscosity (333.15 K): 21.3 ± 2.1 mPa·s
- electrical conductivity (333.15 K): 0.414 ± 0.04 S/m
- mass density (333.15 K): 1372.1 ± 1.7 kg/m3
- surface tension liquid-gas (343.15 K): 42.03 ± 0.78 mN/m
- viscosity (343.15 K): 17.1 ± 1.7 mPa·s
- electrical conductivity (343.15 K): 0.519 ± 0.04 S/m
- mass density (343.15 K): 1362.4 ± 1.7 kg/m3
- surface tension liquid-gas (353.15 K): 40.89 ± 0.76 mN/m
- viscosity (353.15 K): 14.1 ± 1.4 mPa·s
- electrical conductivity (353.15 K): 0.634 ± 0.04 S/m
- mass density (353.15 K): 1352.7 ± 1.7 kg/m3

SMILES: COCC[N+]1(C)CCCCC1.O=S(=O)([N-]S(=O)(=O)C(F)(F)F)C(F)(F)F
- surface tension liquid-gas (298.15 K): 44.65 ± 0.81 mN/m
- viscosity (298.15 K): 69.89 ± 7 mPa·s
- electrical conductivity (298.15 K): 0.209 ± 0.04 S/m
- mass density (298.15 K): 1433.2 ± 1.9 kg/m3
- surface tension liquid-gas (303.15 K): 44.06 ± 0.8 mN/m
- viscosity (303.15 K): 55.79 ± 5.6 mPa·s
- electrical conductivity (303.15 K): 0.241 ± 0.04 S/m
- mass density (303.15 K): 1429 ± 1.9 kg/m3
- surface tension liquid-gas (313.15 K): 43.2 ± 0.79 mN/m
- viscosity (313.15 K): 35.69 ± 3.6 mPa·s
- electrical conductivity (313.15 K): 0.287 ± 0.04 S/m
- mass density (313.15 K): 1419.8 ± 1.8 kg/m3
- surface tension liquid-gas (323.15 K): 42.01 ± 0.78 mN/m
- viscosity (323.15 K): 26 ± 2.6 mPa·s
- electrical conductivity (323.15 K): 0.325 ± 0.04 S/m
- mass density (323.15 K): 1410.7 ± 1.8 kg/m3
- surface tension liquid-gas (333.15 K): 40.98 ± 0.76 mN/m
- viscosity (333.15 K): 19.8 ± 2 mPa·s
- electrical conductivity (333.15 K): 0.396 ± 0.04 S/m
- mass density (333.15 K): 1401.7 ± 1.8 kg/m3
- surface tension liquid-gas (343.15 K): 40.19 ± 0.75 mN/m
- viscosity (343.15 K): 15.6 ± 1.6 mPa·s
- electrical conductivity (343.15 K): 0.489 ± 0.04 S/m
- mass density (343.15 K): 1392.5 ± 1.8 kg/m3
- surface tension liquid-gas (353.15 K): 38.83 ± 0.74 mN/m
- viscosity (353.15 K): 13.8 ± 1.4 mPa·s
- electrical conductivity (353.15 K): 0.599 ± 0.04 S/m
- mass density (353.15 K): 1383.3 ± 1.7 kg/m3

SMILES: COCC[N+]1(C)CCCC1.O=S(=O)([N-]S(=O)(=O)C(F)(F)F)C(F)(F)F
- surface tension liquid-gas (298.15 K): 49.22 ± 0.87 mN/m
- viscosity (298.15 K): 52.19 ± 5.2 mPa·s
- electrical conductivity (298.15 K): 0.345 ± 0.04 S/m
- mass density (298.15 K): 1453 ± 1.9 kg/m3
- surface tension liquid-gas (303.15 K): 48.62 ± 0.86 mN/m
- viscosity (303.15 K): 46.49 ± 4.7 mPa·s
- electrical conductivity (303.15 K): 0.402 ± 0.04 S/m
- mass density (303.15 K): 1448.7 ± 1.9 kg/m3
- surface tension liquid-gas (313.15 K): 47.34 ± 0.84 mN/m
- viscosity (313.15 K): 34.49 ± 3.5 mPa·s
- electrical conductivity (313.15 K): 0.48 ± 0.04 S/m
- mass density (313.15 K): 1439.3 ± 1.9 kg/m3
- surface tension liquid-gas (323.15 K): 46.18 ± 0.83 mN/m
- viscosity (323.15 K): 25.79 ± 2.6 mPa·s
- electrical conductivity (323.15 K): 0.534 ± 0.04 S/m
- mass density (323.15 K): 1429.9 ± 1.9 kg/m3
- surface tension liquid-gas (333.15 K): 45 ± 0.81 mN/m
- viscosity (333.15 K): 20.1 ± 2 mPa·s
- electrical conductivity (333.15 K): 0.59 ± 0.04 S/m
- mass density (333.15 K): 1420.7 ± 1.8 kg/m3
- surface tension liquid-gas (343.15 K): 44.26 ± 0.81 mN/m
- viscosity (343.15 K): 16.8 ± 1.7 mPa·s
- electrical conductivity (343.15 K): 0.648 ± 0.04 S/m
- mass density (343.15 K): 1411.2 ± 1.8 kg/m3
- surface tension liquid-gas (353.15 K): 42.28 ± 0.78 mN/m
- viscosity (353.15 K): 13.5 ± 1.4 mPa·s
- electrical conductivity (353.15 K): 0.699 ± 0.04 S/m
- mass density (353.15 K): 1401.9 ± 1.8 kg/m3

SMILES: CC[N+](C)(C)CCOC.O=S(=O)([N-]S(=O)(=O)C(F)(F)F)C(F)(F)F
- surface tension liquid-gas (298.15 K): 47.56 ± 0.85 mN/m
- viscosity (298.15 K): 59.39 ± 6 mPa·s
- electrical conductivity (298.15 K): 0.288 ± 0.04 S/m
- mass density (298.15 K): 1424.9 ± 1.8 kg/m3
- surface tension liquid-gas (303.15 K): 47.32 ± 0.84 mN/m
- viscosity (303.15 K): 50.39 ± 5.1 mPa·s
- electrical conductivity (303.15 K): 0.315 ± 0.04 S/m
- mass density (303.15 K): 1420.5 ± 1.8 kg/m3
- surface tension liquid-gas (313.15 K): 45.67 ± 0.82 mN/m
- viscosity (313.15 K): 30.59 ± 3.1 mPa·s
- electrical conductivity (313.15 K): 0.357 ± 0.04 S/m
- mass density (313.15 K): 1411 ± 1.8 kg/m3
- surface tension liquid-gas (323.15 K): 44.86 ± 0.81 mN/m
- viscosity (323.15 K): 23.1 ± 2.3 mPa·s
- electrical conductivity (323.15 K): 0.395 ± 0.04 S/m
- mass density (323.15 K): 1401.5 ± 1.8 kg/m3
- surface tension liquid-gas (333.15 K): 43.46 ± 0.8 mN/m
- viscosity (333.15 K): 18.3 ± 1.8 mPa·s
- electrical conductivity (333.15 K): 0.465 ± 0.04 S/m
- mass density (333.15 K): 1390.3 ± 1.8 kg/m3
- surface tension liquid-gas (343.15 K): 42.23 ± 0.78 mN/m
- viscosity (343.15 K): 15 ± 1.5 mPa·s
- electrical conductivity (343.15 K): 0.551 ± 0.04 S/m
- mass density (343.15 K): 1379.2 ± 1.7 kg/m3
- surface tension liquid-gas (353.15 K): 40.44 ± 0.76 mN/m
- viscosity (353.15 K): 13.2 ± 1.3 mPa·s
- electrical conductivity (353.15 K): 0.633 ± 0.04 S/m
- mass density (353.15 K): 1368.9 ± 1.7 kg/m3
